Legend:
[1] = Surface charge (zeta potential) by particle size surface charge analyzer; assay type: physicochemical; details: aqueous phase
Method: The surface charge of the nanoparticle of Example 2 was measured using a particle size surface charge analyzer (Zetasizer Nano-ZS, […]). In addition, the surface charge of a pure indocyanine green solution was measured using the particle size surface charge analyzer.

[2] = Optical stability under continuous 785 nm laser irradiation; assay type: physicochemical; details: 30 minutes
Method: A slide glass on which the nanoparticle of Example 4 was spin coated thereon was prepared. A region of the slide glass was selected, and was continuously irradiated by 785 nm laser for 30 minutes.
FIGS. 14A to 14D are a single particle fluorescence images showing the optical stability of an up-conversion nanoparticle coated with indocyanine green.

surface charge [1]: −25.1 mV
SMILES: CC1(C)C(/C=C/C=C/C=C/C=C2\N(CCCCS(=O)(=O)O)c3ccc4ccccc4c3C2(C)C)=[N+](CCCCS(=O)(=O)[O-])c2ccc3ccccc3c21 [indocyanine green]
fluorescence signal of indocyanine green after laser irradiation (optical stability) [2]: relatively much reduced or disappeared after 30 minutes
